The source made the active and inactive calls. The rule behind the calls is not given here.
Assays:
Type in all cases: functional
Eleusine indica = test: Herbicidal activity against Eleusine indica at 1000 ppm relative to control
Ambrosia artemisiifolia = test: Herbicidal activity against Ambrosia artemisiifolia (ragweed) at 1000 ppm relative to control
Xanthium strumarium = test: Herbicidal activity against Xanthium strumarium (cocklebur) at 1000 ppm relative to control

SMILES	Activity (Eleusine indica)	Activity (Ambrosia artemisiifolia)	Activity (Xanthium strumarium)
O=C1NC(=O)[C@@]2(N1)O[C@H](CO)[C@@H](O)[C@H]2O	Active	Active	Active
O=C1C[C@@]2(O[C@H](CO)[C@@H](O)[C@H]2O)C(=O)N1	70%	90%	90%

— ChEMBL document CHEMBL3046577, “Stereocontrolled synthesis of spirosuccinimide derivative of (+)-hydantocidin” (1995)
